Source: US20040138245A1, “Product comprising mikanolide, dihydromikanolide or an analogue thereof combine with another anti-cancer agent for therapeutic use in cancer treatment” (priority 2001, published 2004)
Where “and” joins values, the source holds several entries; their conditions need not be identical. Equal entries are not always repeated.

System: HT-29 (human colon cancer cells)
Experiment: Measurement of cellular proliferation in vitro (WST1 colorimetric test, 120 hours)
Type: cell-based
Settings: HT29 cells
Experimental: The cell line HT-29 (human colon cancer cells) was acquired from the American Tissue Culture Collection (Rockville, Md., USA).
The HT-29 cells (4000 cells/wells) are cultured on 96-well plates.
On day 0, these cells are seeded in 90 μl of Dulbecco's modified Eagle medium (Gibco-Brl, Cergy-Pontoise, France) completed with 10% of foetal calf serum inactivated by heating (Gibco-Brl, Cergy-Pontoise, France), 50000 units/l of penicillin and 50 mg/l of streptomycin (Gibco-Brl, Cergy-Pontoise, France), and 2 mM of glutamine (Gibco-Brl, Cergy-Pontoise, France).
The cells were treated simultaneously with concentrations of the compounds to be tested singly or in combination for 120 hours.
At the end of the of this period, quantification of the cellular proliferation is evaluated by colorimetric test based on the cleavage of the tetrazolium salt WST1 by the mitochondrial […] in the living cells leading to the formation of formazan (Boehringer Mannheim, Meylan, France). These tests are carried out four times with 6 determinations for each single product and for each combination tested. This allows determination of the number of living cells at the end of each treatment.

In the case of “4-(2-bromophenyl)-1-(2-(1-((4-cyano-3-methoxy)phenylmethyl)imidazo-5-yl)-1-oxoethyl)-1,2-dihydro-8-fluoroimidazol[1,2a][1,4]-benzodiazepine [Example B4]”, the “% of living cells” value (single compound at 5 μM) is reported as 93% and 78%.
With `C[C@H]1C(=O)O[C@H]2C[C@]3(C)O[C@@H]3[C@@H]3O[C@@H]3C3=C[C@@H](OC3=O)[C@@H]21` [Example A1, dihydromikanolide] the “% of living cells” value (single compound at 5 μg/ml) was 61% and 64%.
For `[NH2][Pt]([NH2])([Cl])[Cl]` [Example B1, cisplatin, reference compound], the “% of living cells” value (single compound at 6.25 μM) was 48%.
In the case of `NC(CS)C(=O)N1CCn2cc(-c3ccccc3)nc2C1CC1CCCCC1` (stereo not drawn) [Example B2, 7-(2-amino-1-oxo-3-thiopropyl)-8-(cyclohexylmethyl)-2-phenyl-5,6,7,8-tetrahydroimidazo[1,2a]pyrazine], the “% of living cells” value (single compound at 25 μM) is reported as 37% and 64%.
`CC(C)[C@H](CO)Nc1nc(NCc2cccnc2)n2ncc(Br)c2n1` [Example B3, 8-bromo-2-(1R-isopropyl-2-hydroxyethylamino)-4-(3-pyridylmethylamino)pyrazolo[1,5-a]-1,3,5-triazine] was tested, and the “% of living cells” value (single compound at 100 nM) was 104%.
In the case of “hydrochloride of 8-(dimethylamino)-3,10a-dimethyl-2,6-dioxodecahydro-4,7-methenofuro[3,2-c]oxireno[f]oxacycloundecin-9-yl 2-naphthylcarbamate [Example A2]”, the “% of living cells” value (single compound at 5 μM) is reported as 67% and 72% and 55%.
